Reference: patent publication US20210322382A1, “METHODS AND COMPOSITIONS FOR IMPROVED TREATMENT OF SINUS DISEASE” (Veloce BioPharma LLC, priority 2020, published 2021)

Tests used:
[1] = Stability of PVP-I solutions, USP method; assay type: physicochemical; conditions: aprotic DMSO solvent system, long periods of time
Excerpt: It is known that PVP-I aqueous solutions are difficult to stabilize at low concentrations over a long time. At concentrations less than about 0.7% PVP-I (w/w, aqueous), PVP-I aqueous solutions rapidly decay to yield complex mixtures of iodinated and iodine-free constituents. […] It is of additional novelty that even in the hydrated DMSO solutions prepared from aqueous PVP-I, increased stability is observed for the PVP-I component.

[2] = aqueous solution; stated as known; cited from earlier work
[3] = stated as known drawback of PVP-I; cited from earlier work

povidone-iodine [PVP-I]
lowest PVP-I concentration prepared and maintained as stable composition [1]: 0.1%
PVP-I concentration below which aqueous solutions rapidly decay [2]: less than 0.7 % (w/w, aqueous)
PVP-I concentration above which toxic to the sinuses [3]: above 2.2 % w/w
